Drawing on BindingDB's records for doi:10.1074/jbc.M110.139634 (French Alternative Energies and Atomic Energy Commission, 2010), this text covers Ki for one compound.

What all share (test): Enzyme Assay
Holding throughout (settings): pH 6.8; 25 °C

In assay [1] the target is 72 kDa type IV collagenase (Homo sapiens, UniProt P08253). The text has this: (§1) Enzyme assay using matrix metalloproteinases.
The target of assay [2] is Angiotensin-converting enzyme (Homo sapiens, UniProt P12821).
Source text: as §1

A further assay addresses Collagenase 3 (Homo sapiens, UniProt P45452).
Source text: as §1

Assay [3] concerns the target T1, Disintegrin and metalloproteinase domain-containing protein 17 [215-477,S266A,N452Q] (Homo sapiens, UniProt P78536, N452Q/S266A).
T1 construct: 215-477
Source text: as §1

Another assay addresses T2, Interstitial collagenase (Homo sapiens, UniProt P03956).
T2 sequence (P03956 whole entry): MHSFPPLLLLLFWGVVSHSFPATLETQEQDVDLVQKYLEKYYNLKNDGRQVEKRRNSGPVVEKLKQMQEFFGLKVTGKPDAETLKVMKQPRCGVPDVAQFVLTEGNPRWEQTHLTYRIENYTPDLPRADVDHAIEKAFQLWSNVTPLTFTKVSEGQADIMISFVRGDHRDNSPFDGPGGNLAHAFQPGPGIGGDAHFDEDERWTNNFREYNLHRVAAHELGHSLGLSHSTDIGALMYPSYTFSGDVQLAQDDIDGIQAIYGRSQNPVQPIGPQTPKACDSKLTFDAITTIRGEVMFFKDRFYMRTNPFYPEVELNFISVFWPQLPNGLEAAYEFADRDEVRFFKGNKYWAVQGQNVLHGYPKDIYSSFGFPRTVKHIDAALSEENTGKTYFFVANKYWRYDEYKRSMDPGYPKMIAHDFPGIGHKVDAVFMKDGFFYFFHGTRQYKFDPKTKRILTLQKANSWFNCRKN
Source text: as §1

The target of assay [4] is Macrophage metalloelastase (Homo sapiens, UniProt P39900).
Source text: as §1

A further assay has as its target T3, Matrilysin (Homo sapiens, UniProt P09237).
T3 sequence (P09237 whole entry): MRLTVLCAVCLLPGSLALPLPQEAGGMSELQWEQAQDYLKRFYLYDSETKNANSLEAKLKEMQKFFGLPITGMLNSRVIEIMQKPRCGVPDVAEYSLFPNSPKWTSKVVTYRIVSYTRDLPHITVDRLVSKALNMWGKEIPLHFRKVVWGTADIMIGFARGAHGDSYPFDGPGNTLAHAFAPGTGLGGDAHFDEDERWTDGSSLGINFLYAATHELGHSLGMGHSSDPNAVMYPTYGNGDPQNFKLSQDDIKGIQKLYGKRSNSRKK
Source text: as §1

Assay [5] concerns the target Matrix metalloproteinase-14 (Homo sapiens, UniProt P50281).
Source text: as §1

The target in assay [6] is Matrix metalloproteinase-9 (Homo sapiens, UniProt P14780).
Source text: as §1

Another assay addresses Neutrophil collagenase (Homo sapiens, UniProt P22894).
Source text: as §1

For another assay, the target named is Stromelysin-1 (Homo sapiens, UniProt P08254).
Source text: as §1

The next assay addresses Stromelysin-2 (Homo sapiens, UniProt P09238).
Source text: as §1

T1 sequence (P78536 215-477 S266A/N452Q): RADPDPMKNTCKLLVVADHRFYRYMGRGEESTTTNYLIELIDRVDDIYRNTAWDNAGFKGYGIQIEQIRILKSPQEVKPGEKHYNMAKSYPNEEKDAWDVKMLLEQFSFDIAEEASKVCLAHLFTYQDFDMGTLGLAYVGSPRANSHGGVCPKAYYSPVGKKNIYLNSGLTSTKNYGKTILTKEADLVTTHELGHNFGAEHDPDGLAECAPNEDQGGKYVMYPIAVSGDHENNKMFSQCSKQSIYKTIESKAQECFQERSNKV
Stromelysin-1, sequence (P08254 whole entry): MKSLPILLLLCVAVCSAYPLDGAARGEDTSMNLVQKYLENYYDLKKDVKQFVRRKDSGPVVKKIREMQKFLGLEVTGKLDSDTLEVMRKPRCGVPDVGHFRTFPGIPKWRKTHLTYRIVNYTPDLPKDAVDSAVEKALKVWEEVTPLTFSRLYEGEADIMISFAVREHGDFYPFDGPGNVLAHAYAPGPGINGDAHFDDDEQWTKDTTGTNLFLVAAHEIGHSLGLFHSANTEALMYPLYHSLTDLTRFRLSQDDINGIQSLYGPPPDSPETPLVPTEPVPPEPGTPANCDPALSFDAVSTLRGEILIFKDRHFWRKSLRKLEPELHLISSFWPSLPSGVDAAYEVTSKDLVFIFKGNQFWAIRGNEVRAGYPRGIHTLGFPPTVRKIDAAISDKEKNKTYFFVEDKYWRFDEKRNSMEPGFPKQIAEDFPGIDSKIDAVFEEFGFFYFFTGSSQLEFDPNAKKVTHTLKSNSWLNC
72 kDa type IV collagenase, sequence (P08253 whole entry): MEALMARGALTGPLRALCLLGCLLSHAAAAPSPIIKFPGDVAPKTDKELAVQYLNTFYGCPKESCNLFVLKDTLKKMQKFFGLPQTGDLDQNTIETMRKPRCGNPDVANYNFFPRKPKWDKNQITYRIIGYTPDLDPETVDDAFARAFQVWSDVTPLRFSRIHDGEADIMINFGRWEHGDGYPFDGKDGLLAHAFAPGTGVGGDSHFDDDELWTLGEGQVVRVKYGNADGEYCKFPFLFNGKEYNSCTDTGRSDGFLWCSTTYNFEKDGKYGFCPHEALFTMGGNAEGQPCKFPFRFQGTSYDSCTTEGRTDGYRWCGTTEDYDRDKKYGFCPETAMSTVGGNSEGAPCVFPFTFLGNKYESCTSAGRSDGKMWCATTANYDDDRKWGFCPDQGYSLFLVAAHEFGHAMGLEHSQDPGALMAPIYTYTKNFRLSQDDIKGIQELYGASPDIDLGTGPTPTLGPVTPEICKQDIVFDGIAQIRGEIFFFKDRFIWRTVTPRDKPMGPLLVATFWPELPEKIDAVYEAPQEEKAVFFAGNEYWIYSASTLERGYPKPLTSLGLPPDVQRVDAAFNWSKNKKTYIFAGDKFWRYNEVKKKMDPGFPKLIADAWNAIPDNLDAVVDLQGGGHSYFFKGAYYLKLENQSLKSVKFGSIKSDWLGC
Matrix metalloproteinase-9, sequence (P14780 whole entry): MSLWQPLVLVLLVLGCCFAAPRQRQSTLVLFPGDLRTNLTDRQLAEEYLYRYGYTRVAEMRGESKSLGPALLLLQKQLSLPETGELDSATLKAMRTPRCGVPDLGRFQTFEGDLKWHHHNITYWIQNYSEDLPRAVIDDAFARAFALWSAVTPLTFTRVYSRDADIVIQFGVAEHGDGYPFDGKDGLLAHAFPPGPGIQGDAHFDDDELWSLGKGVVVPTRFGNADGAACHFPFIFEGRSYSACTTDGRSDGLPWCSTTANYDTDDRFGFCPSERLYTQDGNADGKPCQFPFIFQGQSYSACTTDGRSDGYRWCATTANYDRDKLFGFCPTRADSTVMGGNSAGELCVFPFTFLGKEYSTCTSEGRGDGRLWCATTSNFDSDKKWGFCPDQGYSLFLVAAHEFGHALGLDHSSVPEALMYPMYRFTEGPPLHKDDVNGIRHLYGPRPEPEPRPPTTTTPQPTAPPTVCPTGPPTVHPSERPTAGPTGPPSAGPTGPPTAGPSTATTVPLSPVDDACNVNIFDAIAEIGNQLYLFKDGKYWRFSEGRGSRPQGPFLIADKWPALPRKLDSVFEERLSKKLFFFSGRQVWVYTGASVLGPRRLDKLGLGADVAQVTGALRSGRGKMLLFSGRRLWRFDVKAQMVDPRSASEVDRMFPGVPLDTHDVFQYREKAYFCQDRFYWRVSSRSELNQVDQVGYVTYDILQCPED
Stromelysin-2, sequence (P09238 whole entry): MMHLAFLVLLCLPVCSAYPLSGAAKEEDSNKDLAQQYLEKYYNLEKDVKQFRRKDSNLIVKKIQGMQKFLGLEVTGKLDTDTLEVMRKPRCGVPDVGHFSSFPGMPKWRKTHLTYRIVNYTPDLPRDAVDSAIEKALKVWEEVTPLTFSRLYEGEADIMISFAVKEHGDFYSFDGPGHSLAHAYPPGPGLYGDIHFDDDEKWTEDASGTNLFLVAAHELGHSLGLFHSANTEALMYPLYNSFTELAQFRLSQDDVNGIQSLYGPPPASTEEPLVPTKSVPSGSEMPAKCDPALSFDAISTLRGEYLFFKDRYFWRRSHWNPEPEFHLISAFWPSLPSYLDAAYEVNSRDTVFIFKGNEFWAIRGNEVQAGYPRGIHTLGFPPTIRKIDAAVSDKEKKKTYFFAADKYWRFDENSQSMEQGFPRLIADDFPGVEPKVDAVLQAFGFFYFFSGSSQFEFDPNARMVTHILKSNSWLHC
Neutrophil collagenase, sequence (P22894 whole entry): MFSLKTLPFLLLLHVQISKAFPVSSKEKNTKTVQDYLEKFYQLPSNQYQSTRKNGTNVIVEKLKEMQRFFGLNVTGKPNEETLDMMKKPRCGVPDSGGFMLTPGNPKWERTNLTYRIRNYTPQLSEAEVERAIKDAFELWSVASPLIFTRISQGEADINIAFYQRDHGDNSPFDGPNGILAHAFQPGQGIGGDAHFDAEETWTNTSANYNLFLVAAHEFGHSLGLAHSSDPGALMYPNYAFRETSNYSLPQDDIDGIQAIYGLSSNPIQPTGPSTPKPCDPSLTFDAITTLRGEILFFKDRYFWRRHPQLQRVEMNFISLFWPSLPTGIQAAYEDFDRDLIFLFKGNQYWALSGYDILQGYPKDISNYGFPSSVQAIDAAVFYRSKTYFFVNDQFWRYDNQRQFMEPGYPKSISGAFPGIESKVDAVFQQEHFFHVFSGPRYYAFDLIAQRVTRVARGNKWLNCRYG
Macrophage metalloelastase, sequence (P39900 whole entry): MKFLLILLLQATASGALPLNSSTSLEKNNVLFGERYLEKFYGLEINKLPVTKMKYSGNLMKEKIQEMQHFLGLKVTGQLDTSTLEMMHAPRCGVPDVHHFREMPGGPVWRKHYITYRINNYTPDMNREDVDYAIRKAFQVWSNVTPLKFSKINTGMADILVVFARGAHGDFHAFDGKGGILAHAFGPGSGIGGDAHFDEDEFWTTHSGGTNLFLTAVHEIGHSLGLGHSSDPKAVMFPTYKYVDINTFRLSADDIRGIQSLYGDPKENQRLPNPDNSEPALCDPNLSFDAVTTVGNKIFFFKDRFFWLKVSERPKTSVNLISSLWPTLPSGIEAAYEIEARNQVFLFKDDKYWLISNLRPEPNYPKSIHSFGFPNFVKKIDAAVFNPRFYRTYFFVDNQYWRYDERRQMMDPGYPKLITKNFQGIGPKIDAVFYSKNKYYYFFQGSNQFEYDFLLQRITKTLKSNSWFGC
Angiotensin-converting enzyme, sequence (P12821 whole entry): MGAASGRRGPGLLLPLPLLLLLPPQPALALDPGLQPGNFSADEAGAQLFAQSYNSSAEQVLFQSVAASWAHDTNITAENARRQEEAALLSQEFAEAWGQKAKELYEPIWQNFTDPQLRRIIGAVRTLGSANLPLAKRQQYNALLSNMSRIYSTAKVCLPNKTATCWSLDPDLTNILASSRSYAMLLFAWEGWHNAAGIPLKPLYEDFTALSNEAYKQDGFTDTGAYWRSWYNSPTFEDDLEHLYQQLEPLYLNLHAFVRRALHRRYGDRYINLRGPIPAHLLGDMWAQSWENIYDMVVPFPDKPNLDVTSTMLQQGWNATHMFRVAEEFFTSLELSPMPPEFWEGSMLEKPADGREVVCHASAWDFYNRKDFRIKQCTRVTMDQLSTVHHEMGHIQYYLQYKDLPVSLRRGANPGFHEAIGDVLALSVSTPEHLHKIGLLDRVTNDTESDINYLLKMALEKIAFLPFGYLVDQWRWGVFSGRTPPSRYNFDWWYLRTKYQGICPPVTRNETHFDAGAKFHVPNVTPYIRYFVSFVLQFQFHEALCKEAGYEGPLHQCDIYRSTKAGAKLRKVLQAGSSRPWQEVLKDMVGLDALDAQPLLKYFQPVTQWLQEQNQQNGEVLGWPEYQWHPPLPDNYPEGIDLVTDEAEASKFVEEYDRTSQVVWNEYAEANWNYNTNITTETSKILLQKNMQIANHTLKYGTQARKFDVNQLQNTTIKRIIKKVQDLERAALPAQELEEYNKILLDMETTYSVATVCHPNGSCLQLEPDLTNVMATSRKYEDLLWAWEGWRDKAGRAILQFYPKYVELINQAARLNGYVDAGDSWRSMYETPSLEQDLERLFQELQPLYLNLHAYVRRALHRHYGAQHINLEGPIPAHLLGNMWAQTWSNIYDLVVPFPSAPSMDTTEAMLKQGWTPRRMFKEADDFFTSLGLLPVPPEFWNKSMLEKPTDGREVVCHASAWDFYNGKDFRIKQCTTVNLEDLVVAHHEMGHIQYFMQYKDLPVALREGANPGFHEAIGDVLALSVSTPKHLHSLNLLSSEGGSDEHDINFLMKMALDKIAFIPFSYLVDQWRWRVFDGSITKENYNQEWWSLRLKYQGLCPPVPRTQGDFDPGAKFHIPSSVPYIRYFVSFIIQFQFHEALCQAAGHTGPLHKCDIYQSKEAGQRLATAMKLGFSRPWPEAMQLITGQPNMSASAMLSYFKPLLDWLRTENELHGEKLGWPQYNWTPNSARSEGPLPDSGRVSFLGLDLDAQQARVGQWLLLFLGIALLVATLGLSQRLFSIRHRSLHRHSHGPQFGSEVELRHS

In the case of `NC(=O)[C@@H](CCC(=O)O)NC(=O)[C@H](CCC(=O)O)NC(=O)C(Cc1cc(-c2ccc(-c3cccc(Cl)c3)cc2)no1)CP(=O)(O)c1ccc(Br)cc1` (some centres not stated) [RXP470, Compound 4], the Ki in [1] was 192 nM; in assay [2] it was more than 10000 nM; on Collagenase 3, 49 nM; in assay [3], more than 10000 nM; on Interstitial collagenase, more than 10000 nM; in [4] it was 0.19 nM. Further, the Ki at Matrilysin stood at 626 nM; in [5] it was 140 nM; in [6], 850 nM; on Neutrophil collagenase, 271 nM; on Stromelysin-1 it was 40 nM; at Stromelysin-2, 8.3 nM.

Usually Ki stands for a measure of affinity in units of concentration, obtained from inhibition or displacement. Low readings indicate higher affinity, high ones lower affinity.
